# Measured values reported in patent publication US20240409585A1, “MACROCYCLIC IMMUNOMODULATORS” (priority 2021, published 2024).
# Bridge positions count the residues as written; N and C are the ends. Square brackets hold non-standard residues; d marks the D form. Peptide text beside a SMILES is read from it. Phe(2,4-Cl2) = N[C@@H](Cc1ccc(Cl)cc1Cl)C(=O)O; Tyr(Ph) = N[C@@H](Cc1ccc(Oc2ccccc2)cc1)C(=O)O; Bip = N[C@@H](Cc1ccc(-c2ccccc2)cc1)C(=O)O; Phe(2-CN) = N#Cc1ccccc1C[C@H](N)C(=O)O; Phe(2-Cl) = N[C@@H](Cc1ccccc1Cl)C(=O)O; 1Nal = N[C@@H](Cc1cccc2ccccc12)C(=O)O; 2Nal = N[C@@H](Cc1ccc2ccccc2c1)C(=O)O; Cit = NC(=O)NCCC[C@H](N)C(=O)O; dOrn = NCCC[C@@H](N)C(=O)O; hSer = N[C@@H](CCO)C(=O)O; NMeA = CN[C@@H](C)C(=O)O; Nle = CCCC[C@H](N)C(=O)O; Nva = CCC[C@H](N)C(=O)O; Aib = CC(C)(N)C(=O)O
# Target: T1, PE-labeled human PD-L1-Ig binding to Jurkat cell line over-expressing human PD-1 (Jurkat-PD-1) (Homo sapiens, UniProt Q15116)
# T1 construct: expressed in transfected cells; host or cells: Jurkat
# Test: Jurkat-PD-1 Cell Binding High-Content Screening Assay (CBA): Method 1
# Details: Jurkat-hPD-1 cells, PE-labeled PD-L1-Ig 20 nM final; read-out: Jurkat HPDL1 PD1 IC50 (uM) (Method 1)
# T1 sequence (Q15116 25-288): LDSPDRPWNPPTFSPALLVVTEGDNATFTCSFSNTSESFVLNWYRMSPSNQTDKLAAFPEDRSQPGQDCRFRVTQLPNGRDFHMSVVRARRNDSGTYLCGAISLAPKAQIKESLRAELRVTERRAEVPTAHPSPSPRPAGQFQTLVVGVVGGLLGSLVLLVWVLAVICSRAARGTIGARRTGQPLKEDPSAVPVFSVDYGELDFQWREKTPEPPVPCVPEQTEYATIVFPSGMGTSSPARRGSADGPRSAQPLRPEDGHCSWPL
row,IC50,SMILES
1,0.18 µM,CC(C)C[C@@H]1NC(=O)[C@H](Cc2c[nH]c3ccccc23)NC(=O)[C@H](CC(=O)O)NC(=O)[C@H](Cc2ccc3ccccc3c2)NC(=O)[C@H](Cc2ccccc2)NC(=O)CSC[C@@H](C(=O)N[C@@H](C)C(N)=O)NC(=O)[C@H](CO)NC(=O)[C@H](C(C)C)NC(=O)[C@H](CC(C)C)NC(=O)[C@H](CC(N)=O)NC(=O)[C@@H](C)NC(=O)[C@H](C)N(C)C(=O)[C@H](C(C)C)NC(=O)[C@H](Cc2ccc(-c3ccccc3)cc2)NC1=O [Compound 1800] ({CH2CO}-F[2Nal]DWL[Bip]V[NMeA][dA]NLVSCA-NH2; thioether N-14)
2,0.19 µM,CC(C)C[C@@H]1NC(=O)[C@H](Cc2c[nH]c3ccccc23)NC(=O)[C@H](CC(=O)O)NC(=O)[C@H](Cc2ccc(O)cc2)NC(=O)[C@H](Cc2ccccc2)NC(=O)CSC[C@@H](C(=O)N[C@@H](C)C(N)=O)NC(=O)[C@H](CO)NC(=O)[C@H](C(C)C)NC(=O)[C@H](CC(C)C)NC(=O)[C@H](CC(N)=O)NC(=O)[C@@H](CCCN)NC(=O)[C@H](C)N(C)C(=O)[C@H](C(C)C)NC(=O)[C@H](Cc2ccc(-c3ccccc3)cc2)NC1=O [Compound 1802] ({CH2CO}-FYDWL[Bip]V[NMeA][dOrn]NLVSCA-NH2; thioether N-14)
3,0.2 µM,CCC[C@@H]1NC(=O)[C@H](C)N(C)C(=O)[C@H](C(C)C)NC(=O)[C@H](Cc2ccc(-c3ccccc3)cc2)NC(=O)[C@H](CC(C)C)NC(=O)[C@H](Cc2c[nH]c3ccccc23)NC(=O)[C@H](CC(=O)O)NC(=O)[C@H](Cc2ccc(O)cc2)NC(=O)[C@H](Cc2ccccc2)NC(=O)CSC[C@@H](C(=O)NCC(N)=O)NC(=O)[C@H](CO)NC(=O)[C@H](C(C)C)NC(=O)[C@H](CC(C)C)NC(=O)[C@H](CC(N)=O)NC1=O [Compound 1803] ({CH2CO}-FYDWL[Bip]V[NMeA][Nva]NLVSCG-NH2; thioether N-14)
4,0.21 µM,CC(C)C[C@@H]1NC(=O)[C@H](Cc2c[nH]c3ccccc23)NC(=O)[C@H](CC(=O)O)NC(=O)[C@H](Cc2ccc(O)cc2)NC(=O)[C@H](Cc2ccccc2)NC(=O)CSC[C@@H](C(=O)N[C@@H](C)C(N)=O)NC(=O)[C@H](CO)NC(=O)[C@H](C(C)C)NC(=O)[C@H](CC(C)C)NC(=O)[C@H](CC(N)=O)NC(=O)[C@@H](CCCNC(=N)N)NC(=O)[C@H](C)N(C)C(=O)[C@H](C(C)C)NC(=O)[C@H](Cc2ccc(-c3ccccc3)cc2)NC1=O [Compound 1804] ({CH2CO}-FYDWL[Bip]V[NMeA][dR]NLVSCA-NH2; thioether N-14)
5,0.23 µM,CC(C)C[C@@H]1NC(=O)[C@H](Cc2c[nH]c3ccccc23)NC(=O)[C@H](CC(=O)O)NC(=O)[C@H](Cc2cccc3ccccc23)NC(=O)[C@H](Cc2ccccc2)NC(=O)CSC[C@@H](C(=O)N[C@@H](C)C(N)=O)NC(=O)[C@H](CO)NC(=O)[C@H](C(C)C)NC(=O)[C@H](CC(C)C)NC(=O)[C@H](CC(N)=O)NC(=O)[C@@H](C)NC(=O)[C@H](C)N(C)C(=O)[C@H](C(C)C)NC(=O)[C@H](Cc2ccc(-c3ccccc3)cc2)NC1=O [Compound 1805] ({CH2CO}-F[1Nal]DWL[Bip]V[NMeA][dA]NLVSCA-NH2; thioether N-14)
6,0.23 µM,CC(C)C[C@@H]1NC(=O)[C@H](Cc2c[nH]c3ccccc23)NC(=O)[C@H](CC(=O)O)NC(=O)[C@H](Cc2ccccc2C#N)NC(=O)[C@H](Cc2ccccc2)NC(=O)CSC[C@@H](C(=O)N[C@@H](C)C(N)=O)NC(=O)[C@H](CO)NC(=O)[C@H](C(C)C)NC(=O)[C@H](CC(C)C)NC(=O)[C@H](CC(N)=O)NC(=O)[C@@H](C)NC(=O)[C@H](C)N(C)C(=O)[C@H](C(C)C)NC(=O)[C@H](Cc2ccc(-c3ccccc3)cc2)NC1=O [Compound 1806] ({CH2CO}-F[Phe(2-CN)]DWL[Bip]V[NMeA][dA]NLVSCA-NH2; thioether N-14)
7,0.24 µM,CC(C)C[C@@H]1NC(=O)[C@H](Cc2c[nH]c3ccccc23)NC(=O)[C@H](CC(=O)O)NC(=O)[C@H](Cc2ccccc2Cl)NC(=O)[C@H](Cc2ccccc2)NC(=O)CSC[C@@H](C(=O)N[C@@H](C)C(N)=O)NC(=O)[C@H](CO)NC(=O)[C@H](C(C)C)NC(=O)[C@H](CC(C)C)NC(=O)[C@H](CC(N)=O)NC(=O)[C@@H](C)NC(=O)[C@H](C)N(C)C(=O)[C@H](C(C)C)NC(=O)[C@H](Cc2ccc(-c3ccccc3)cc2)NC1=O [Compound 1807] ({CH2CO}-F[Phe(2-Cl)]DWL[Bip]V[NMeA][dA]NLVSCA-NH2; thioether N-14)
8,0.86 µM,CC(C)C[C@@H]1NC(=O)[C@H](Cc2c[nH]c3ccccc23)NC(=O)[C@H](CC(=O)O)NC(=O)[C@H](Cc2ccc(O)cc2)NC(=O)[C@H](Cc2cnc[nH]2)NC(=O)CSC[C@@H](C(=O)NCC(N)=O)NC(=O)[C@H](CO)NC(=O)[C@H](C(C)C)NC(=O)[C@H](CC(C)C)NC(=O)[C@H](CC(N)=O)NC(=O)[C@H](CC(N)=O)NC(=O)[C@H](C)N(C)C(=O)[C@H](C(C)C)NC(=O)[C@H](Cc2ccc(-c3ccccc3)cc2)NC1=O [Compound 1808] ({CH2CO}-HYDWL[Bip]V[NMeA]NNLVSCG-NH2; thioether N-14)
9,0.28 µM,"CC(C)C[C@@H]1NC(=O)[C@H](Cc2c[nH]c3ccccc23)NC(=O)[C@H](CC(=O)O)NC(=O)[C@H](Cc2ccc(Cl)cc2Cl)NC(=O)[C@H](Cc2ccccc2)NC(=O)CSC[C@@H](C(=O)N[C@@H](C)C(N)=O)NC(=O)[C@H](CO)NC(=O)[C@H](C(C)C)NC(=O)[C@H](CC(C)C)NC(=O)[C@H](CC(N)=O)NC(=O)[C@@H](C)NC(=O)[C@H](C)N(C)C(=O)[C@H](C(C)C)NC(=O)[C@H](Cc2ccc(-c3ccccc3)cc2)NC1=O [Compound 1810] ({CH2CO}-F[Phe(2,4-Cl2)]DWL[Bip]V[NMeA][dA]NLVSCA-NH2; thioether N-14)"
10,0.28 µM,CC(C)C[C@@H]1NC(=O)[C@H](Cc2c[nH]c3ccccc23)NC(=O)[C@H](CC(=O)O)NC(=O)[C@H](Cc2ccc(O)cc2)NC(=O)[C@H](Cc2ccccc2)NC(=O)CSC[C@@H](C(=O)NCC(N)=O)NC(=O)[C@H](CO)NC(=O)[C@H](C(C)C)NC(=O)[C@H](CC(C)C)NC(=O)[C@H](CC(N)=O)NC(=O)[C@H](CCC(N)=O)NC(=O)[C@H](C)N(C)C(=O)[C@H](C(C)C)NC(=O)[C@H](Cc2ccc(-c3ccccc3)cc2)NC1=O [Compound 1811] ({CH2CO}-FYDWL[Bip]V[NMeA]QNLVSCG-NH2; thioether N-14)
11,0.28 µM,CC(C)C[C@@H]1NC(=O)[C@H](Cc2c[nH]c3ccccc23)NC(=O)[C@H](CC(=O)O)NC(=O)[C@H](Cc2ccc(O)cc2)NC(=O)[C@H](Cc2ccccc2)NC(=O)CSC[C@@H](C(=O)NCC(N)=O)NC(=O)[C@H](CO)NC(=O)[C@H](C(C)C)NC(=O)[C@H](CC(C)C)NC(=O)[C@H](CC(N)=O)NC(=O)[C@H](CCCNC(N)=O)NC(=O)[C@H](C)N(C)C(=O)[C@H](C(C)C)NC(=O)[C@H](Cc2ccc(-c3ccccc3)cc2)NC1=O [Compound 1812] ({CH2CO}-FYDWL[Bip]V[NMeA][Cit]NLVSCG-NH2; thioether N-14)
12,0.3 µM,CC(C)C[C@@H]1NC(=O)[C@H](Cc2c[nH]c3ccccc23)NC(=O)[C@H](CC(=O)O)NC(=O)[C@H](Cc2ccc(Oc3ccccc3)cc2)NC(=O)[C@H](Cc2ccccc2)NC(=O)CSC[C@@H](C(=O)N[C@@H](C)C(N)=O)NC(=O)[C@H](CO)NC(=O)[C@H](C(C)C)NC(=O)[C@H](CC(C)C)NC(=O)[C@H](CC(N)=O)NC(=O)[C@@H](C)NC(=O)[C@H](C)N(C)C(=O)[C@H](C(C)C)NC(=O)[C@H](Cc2ccc(-c3ccccc3)cc2)NC1=O [Compound 1813] ({CH2CO}-F[Tyr(Ph)]DWL[Bip]V[NMeA][dA]NLVSCA-NH2; thioether N-14)
13,0.3 µM,CC(C)C[C@@H]1NC(=O)[C@H](Cc2c[nH]c3ccccc23)NC(=O)[C@H](CC(=O)O)NC(=O)[C@H](Cc2ccc(O)cc2)NC(=O)[C@H](Cc2ccccc2)NC(=O)CSC[C@@H](C(=O)NCC(N)=O)NC(=O)[C@H](CO)NC(=O)[C@H](C(C)C)NC(=O)[C@H](CC(C)C)NC(=O)[C@H](CC(N)=O)NC(=O)[C@H](CCO)NC(=O)[C@H](C)N(C)C(=O)[C@H](C(C)C)NC(=O)[C@H](Cc2ccc(-c3ccccc3)cc2)NC1=O [Compound 1814] ({CH2CO}-FYDWL[Bip]V[NMeA][hSer]NLVSCG-NH2; thioether N-14)
14,0.31 µM,CC(C)C[C@@H]1NC(=O)CSC[C@@H](C(=O)NCC(N)=O)NC(=O)[C@H](CO)NC(=O)[C@H](C(C)C)NC(=O)[C@H](CC(C)C)NC(=O)[C@H](CC(N)=O)NC(=O)[C@H](CC(N)=O)NC(=O)[C@H](C)N(C)C(=O)[C@H](C(C)C)NC(=O)[C@H](Cc2ccc(-c3ccccc3)cc2)NC(=O)[C@H](CC(C)C)NC(=O)[C@H](Cc2c[nH]c3ccccc23)NC(=O)[C@H](CC(=O)O)NC(=O)[C@H](Cc2ccc(O)cc2)NC1=O [Compound 1815] ({CH2CO}-LYDWL[Bip]V[NMeA]NNLVSCG-NH2; thioether N-14)
15,0.32 µM,CCCC[C@@H]1NC(=O)[C@H](CC(N)=O)NC(=O)[C@@H](C)NC(=O)[C@H](C)N(C)C(=O)[C@H](C(C)C)NC(=O)[C@H](Cc2ccc(-c3ccccc3)cc2)NC(=O)[C@H](CC(C)C)NC(=O)[C@H](Cc2c[nH]c3ccccc23)NC(=O)[C@H](CC(=O)O)NC(=O)[C@H](Cc2ccc(O)cc2)NC(=O)[C@H](Cc2ccccc2)NC(=O)CSC[C@@H](C(=O)N[C@@H](C)C(N)=O)NC(=O)[C@H]([C@@H](C)O)NC(=O)[C@H](CCCNC(=N)N)NC1=O [Compound 1816] ({CH2CO}-FYDWL[Bip]V[NMeA][dA]N[Nle]RTCA-NH2; thioether N-14)
16,0.42 µM,CC(C)C[C@@H]1NC(=O)[C@H](Cc2c[nH]c3ccccc23)NC(=O)[C@H](CC(=O)O)NC(=O)[C@H](Cc2ccc(O)cc2)NC(=O)[C@H](Cc2ccccc2)NC(=O)CSC[C@@H](C(=O)NCC(N)=O)NC(=O)[C@H](CO)NC(=O)[C@H](C(C)C)NC(=O)[C@H](CC(C)C)NC(=O)[C@H](CC(N)=O)NC(=O)C(C)(C)NC(=O)[C@H](C)N(C)C(=O)[C@H](C(C)C)NC(=O)[C@H](Cc2ccc(-c3ccccc3)cc2)NC1=O [Compound 1818] ({CH2CO}-FYDWL[Bip]V[NMeA][Aib]NLVSCG-NH2; thioether N-14)
